These results are taken from patent US20240254145A1, “SALT FORM AND CRYSTAL FORM OF HETEROCYCLIC SUBSTITUTED PURINONE DERIVATIVE” (ZAI LAB (SHANGHAI) CO., LTD., priority 2021, published 2024).

Series [1] is described as follows: Pharmacokinetic evaluation in rat plasma after oral administration. In kind it is in vivo. The note with it: 30 mg/kg, SD male rats. As for the experimental part: The test compound was mixed with 0.5% CMC-Na+0.2% (V:V) Tween80 aqueous solution, vortexed, and sonicated to prepare a 3 mg/mL homogeneous suspension. SD male rats were selected, and orally administered with the candidate compound solution at a dose of 30 mg/kg. Whole blood was collected for a certain period of time and prepared into plasma. The drug concentration was analyzed by the LC-MS/MS method, and the pharmacokinetic parameters were calculated using Phoenix WinNonlin software (Pharsight, USA).
Cmax: highest plasma drug concentration after administration; Tmax: time required to reach the peak concentration after administration; T1/2: time required for the plasma drug concentration to decrease by half; Tlast: time at the last detection point; AUC0-last: area under the drug-time curve, which refers to the area enclosed by the plasma drug concentration curve and the time axis.

Series [2] deals with T1, Human DNA-PK (Homo sapiens, UniProt P78527).
T1 construct: purchased Eurofins (Eurofins Pharma Discovery Service; outsourced assay)
Description: DNA-dependent protein kinase (DNA-PK) inhibitory activity screening assay (Eurofins, HTRF). The note with it: ATP: 10 μM, 50 nM GST-cMyc-p53. The series is classed as biochemical. How it is done:
This experiment was tested in the Eurofins
Human DNA-PK; Mg/ATP; GST-cMyc-p53; EDTA; Ser15 antibody; ATP: 10 μM.
DNA-PK(h) was incubated in assay buffer containing 50 nM GST-cMyc-p53 and Mg/ATP (according to the required concentration). The reaction was initiated by adding the Mg/ATP mixture. After incubation at room temperature for 30 minutes, the reaction was stopped by adding a stop solution containing EDTA. Finally, detection buffer (containing labeled anti-GST monoclonal antibody and europium-labeled anti-phospho Ser15 antibody against phosphorylated p53) was added. The plate was then read in time-resolved fluorescence mode, and the homogeneous time-resolved fluorescence (HTRF) signal was determined according to the formula HTRF=10000×(Em665 nm/Em620 nm).
For orientation: TR-FRET usually uses a lanthanide donor and a delayed reading to cut background.

For series [3], the system named is human lung cancer NCI-H1703 xenograft tumor. The experiment in a line: In vivo pharmacodynamic study, NCI-H1703 subcutaneous xenograft tumor model. The note with it: for Tumor volume (Day 0): Day 0, Mean ± SEM; for Tumor volume (Day 0) / Tumor volume (Day 21) / Tumor weight (Day 21): n = 9; for RTV (Day 21) / T/C (%) (Day 21) / T/Cweight (%) / TGI (%) (Day 21): Day 21; for Tumor volume (Day 21) / Tumor weight (Day 21): Day 21, Mean ± SEM. Also on record: species or system female BALB/c nude mice. As for the experimental part:
Experimental purpose: To study the in vivo pharmacodynamics of the test compound in the BALB/c nude mouse model with subcutaneous xenograft tumor of human […] NCI-H1703 cells.
Experimental animals: Experimental animals: female BALB/c nude mice, 6 to 8 weeks of age, weighing 18 to 22 grams; supplier: Shanghai Sippr-BK Lab.Animal Co.Ltd.
Human non-small cell lung cancer NCI-H1703 cells were cultured in vitro in RPMI1640 medium with 10% fetal bovine serum, 100 U/mL penicillin, and 100 μg/mL streptomycin, and cultured at 37° C. in a 5% CO2 incubator. Conventional digestion with trypsin-EDTA was performed twice a week for passaging. When the cell saturation was 80% to 90% and the number of cells reached the requirement, and the cells were collected, counted, and seeded.
0.2 mL (5×10^6) NCI-H1703 cells (added with Matrigel, volume ratio of 1:1) were subcutaneously inoculated on the right back of each mouse, and the administration in groups began when the average tumor volume reached about 130 mm^3.
The compound of formula (I) was prepared into 3 mg/mL, 6 mg/mL, and 9 mg/mL suspension solutions with 98.5% water+0.5% HPMC+1% Tween 80.
Tumor diameters were measured with a vernier caliper twice a week. The formula for calculating tumor volume is: V=0.5a×b^2, wherein a and b represent the long and short diameters of the tumor, respectively. The relative tumor volume (RTV) was calculated based on the results of tumor measurement. The calculation formula is RTV=Vt/V0, wherein V0 is the tumor volume measured at the time of group administration (i.e., day 0), and Vt is the tumor volume at one measurement. Data of the same day was taken for TRTV and CRTV.
The tumor inhibitory effect of the compound was evaluated by TGI (%, reflecting the tumor growth inhibition rate) or relative tumor proliferation rate T/C (%):
T/C (%)=TRTV/CRTV×100%, TRTV represents the average RTV of the treatment group, and CRTV represents the average RTV of the negative control group.
TGI (%)=[1−(average tumor volume at the end of administration in a certain treatment group−average tumor volume at the beginning of administration in this treatment group)/(average tumor volume at the end of treatment in the vehicle control group−average tumor volume at the beginning of treatment in the vehicle control group)]×100%.
After the experiment, the tumor weight (TW) was detected and T/Cweight (%) was calculated. The calculation formula is: T/Cweight (%)=TWtreatment/TWvehicle×100%. TWtreatment and TWvehicle represent the tumor weights of the administration group and vehicle control group, respectively.
Statistical analysis was performed using SPSS software based on RTV data at the end of the experiment. […] T-test was used to analyze the comparison between two groups, and one-way ANOVA was used to analyze the comparisons between three or more groups. If the variance was homogeneous (F value had no significant difference), Tukey's method is used for analysis; if the variance was not homogeneous (F value had significant difference), and the Games-Howell method was used for testing. p<0.05 was considered a significant difference.

Series [4] in a line: Solid-state stability test of crystal form B (XRPD and HPLC purity). The series is classed as physicochemical. How it is done: Based on the “Guideline for Stability Testing of Pharmaceutical Ingredients and Formulations” (Chinese Pharmacopoeia 2020 Edition, General Rule 9001), in order to evaluate the solid-state stability of the crystal form B of the compound of formula (II-1), the solid-state stability of the crystal form B was investigated in terms of the influencing factors (high temperature, high humidity, and light) and the conditions of 60° C./75% RH and 40° C./75% RH. The crystal form B was placed at high temperature (60° C., open) and high humidity (25° C./92.5° RH, open) for 10 days respectively, and then placed open under visible and UV light (samples of the shaded control group were placed at the same time and wrapped in tin foil) according to the ICH conditions (total illuminance up to 1,200,000 Lux hrs in visible and 200 W hrs/m^2 in UV), for 1, 2, and 3 months at 60° C./75% RH (open), and for 1, 2, and 3 months at 40° C./75% RH (open).
About 10 mg of this crystal form was accurately weighed and placed in a dry and clean glass vial, spread into a thin layer, and left open under the test conditions of the influence factors and the accelerated conditions. Samples placed under light conditions (visible light 1200000 Lux hrs, UV 200 W hrs/m^2) were in a clear glass vial with full exposure, and samples for XRPD test were placed separately.
After the sample was taken out at the time point, it was covered, sealed with a sealing film, and stored in a −20° C. refrigerator. When preparing the sample, the sample was taken out of the refrigerator and warmed to room temperature, and dissolved with 25 mL of diluent (acetonitrile/water, 1:1, v/v) to obtain a solution with a concentration of approximately 0.5 mg/mL. The solution was analyzed using the liquid chromatography, and the results of the test were compared with the initial test results on day 0.
Preparation of standard solution on day 0: About 12.5 mg of this crystal form was weighed and placed in a 25 mL volumetric flask, dissolved with […], and diluted to the mark.
At the same time, HPLC tests were performed on all stability samples.

Series [5] is described as follows: Hygroscopicity study by dynamic vapor sorption (DVS). In kind it is physicochemical. Particulars: 25° C. and 80% RH. As for the experimental part:
Instrument model: SMS DVS intrinsic dynamic moisture sorption analyzer
Test conditions: a sample (about 10 mg) is taken and placed in the DVS sample tray for testing.
The detailed DVS parameters are as follows:
Equilibrium: dm/dt=0.01%/min
RH (%) test increment: 5% RH
RH (%) test increment range: 0% to 95% to 0%
The evaluation and classifications of hygroscopicity are shown as follows:
Sufficient moisture is absorbed to produce a fluid: Deliquescence; ΔW %≥15%: High hygroscopicity; 15%>ΔW %≥2%: Hygroscopicity; 2%>ΔW %≥0.2%: Slight hygroscopicity; ΔW %<0.2%: No hygroscopicity or almost no hygroscopicity: ΔW % indicates hygroscopic weight gain of the sample at 25±1° C. and 80±2% RH.
The crystal form B of the compound of formula (II-1) (about 10 mg) was taken and placed in the DVS sample tray for testing.

pIC50: −log10 of the molar value.

For the molecule `Cc1cc2ncnn2cc1Nc1ncc2c(n1)n(N1CC3CCC(C1)O3)c(=O)n2C`, in series [1] (male, SD, rat, po), the exposure AUC(0-t) was 87.4 µM·h and the highest level (Cmax) was 11.1 µM. Also, the pIC50 in series [2] is 9.22.
As to `Cc1cc2ncnn2cc1Nc1ncc2c(n1)n(N1CC3CCC(C1)O3)c(=O)n2C` [Compound of formula (I)], in series [3] (30 mg/kg), the “Tumor volume (Day 0)” value is on record as 131 ± 10 mm^3, the “RTV (Day 21)” value was 7.57 ± 0.53, the “T/C (%) (Day 21)” value amounted to 79.3% and the “T/Cweight (%)” value stood at 79.6%. Also, in series [3] (30 mg/kg), the “TGI (%) (Day 21)” value is 20.6%, the “Tumor volume (Day 21)” value is listed as 979 ± 86 mm^3 and the “Tumor weight (Day 21)” value is 1.031 ± 0.095 g. Besides, in series [3] (60 mg/kg), the “Tumor volume (Day 0)” value is reported as 131 ± 10 mm^3, the “RTV (Day 21)” value came out at 3.31 ± 0.51, the “T/C (%) (Day 21)” value is 34.7% and the “T/Cweight (%)” value is 36.0%. Besides, in series [3] (60 mg/kg), the “TGI (%) (Day 21)” value was determined as 72.3%, the “Tumor volume (Day 21)” value was found to be 427 ± 64 mm^3 and the “Tumor weight (Day 21)” value was 0.467 ± 0.078 g. In series [3] (90 mg/kg), the “Tumor volume (Day 0)” value is listed as 130 ± 10 mm^3, the “RTV (Day 21)” value was 2.64 ± 0.45, the “T/C (%) (Day 21)” value is reported as 27.7% and the “T/Cweight (%)” value turned out to be 29.2%. In addition, in series [3] (90 mg/kg), the “TGI (%) (Day 21)” value was 79.4%, the “Tumor volume (Day 21)” value is on record as 351 ± 64 mm^3 and the “Tumor weight (Day 21)” value stood at 0.379 ± 0.069 g.
As to `Cc1cc2ncnn2cc1Nc1ncc2c(n1)n(N1CC3CCC(C1)O3)c(=O)n2C` [Crystal form A of the compound of formula (I)], in series [1], the AUC0-last turned out to be 83.483 µM·h, the peak level (Cmax) was 14.6 µM, the T1/2 is 1.59 h and the time of peak concentration (Tmax) amounted to 0.67 h.
For the molecule `Cc1cc2ncnn2cc1Nc1ncc2c(n1)n(N1CC3CCC(C1)O3)c(=O)n2C` [Crystal form B of the compound of formula (II-1)], the “Purity (area %)” value in series [4] (0 days (initial)) worked out at 99.70 area %; in series [4] (40° C., relative humidity of 75%, open, one month) it was 99.77 area %; in series [4] (40° C., relative humidity of 75%, open, three months), 99.72 area %; in series [4] (40° C., relative humidity of 75%, open, two months) it was 99.76 area %; in series [4] (60° C., relative humidity of 75%, open, one month) it was 99.76 area %; in series [4] (60° C., relative humidity of 75%, open, three months) it was 99.73 area %. In addition, the “Purity (area %)” value in series [4] (60° C., relative humidity of 75%, open, two months) is 99.73 area %; in series [4] (High humidity (25° C., relative humidity of 92.5%, open), 10 days), 99.75 area %; in series [4] (High temperature (60° C., open), 10 days), 99.71 area %; in series [4] (Shaded control group, wrapped with tin foil, placed with visible light + UV), 99.75 area %; in series [4] (Visible light + UV (ICH conditions), 1,200,000 Lux·hrs, 200 W·hrs/m^2), 99.77 area %. Moreover, the T1/2 in series [1] was found to be 4.07 h. Besides, the Tmax in series [1] is listed as 1.33 h. Also, the Hygroscopicity classification result in series [5] is listed as “slightly hygroscopic”.
For the molecule `Cc1cc2ncnn2cc1Nc1ncc2c(n1)n(N1CC3CCC(C1)O3)c(=O)n2C` [Crystal form K of the compound of formula (VIII-1)], in series [1], the AUC0-last was 127.313 µM·h, the highest level (Cmax) was 21.7 µM, the T1/2 stood at 2.42 h and the Tlast is listed as 32.0 h. In addition, the Tmax in series [1] came out at 1.50 h.

Broadly, the AUC(0-t) is exposure summed from dosing to a finite time, without extrapolation to infinity. A lower AUC(0-t) goes with low exposure. In general, Cmax refers to the highest concentration seen after dosing. For orientation: pIC50 means the IC50 on a negative log10 scale, so that one unit is a factor of ten. A lower pIC50 goes with a large IC50. The term Tmax denotes the time from dosing to the highest level.
